Results from patent publication US20230203059A1, “MACROCYCLIC JAK INHIBITOR AND USES THEREOF” (Biopolar Hongye (Guangdong) Pharmaceutical Co. Ltd., priority 2020, published 2023).
pIC50: −log10 of the molar value.

What was measured:
Format in all cases: biochemical
JAK2 = JAK2 (Homo sapiens, UniProt O60674); experiment: JAK kinase activity, homogeneous time-resolved fluorescence (JAK2 reaction system); conditions: ATP 2 μM, JAK2 protein 0.01 ng/μL
Method in brief: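 IC50 derived by Hill-equation fit of the 665/615 nm time-resolved fluorescence ratio after EDTA-containing detection mix with anti-phosphosubstrate antibody. Preceding 1 h reaction contained 2 μM ATP, 0.01 ng/μL JAK2, substrate, 50 mM Hepes pH 7.0, 5 mM MgCl2, 1 mM DTT.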

JAK1 = JAK1 (Homo sapiens, UniProt P23458); experiment: JAK kinase activity, homogeneous time-resolved fluorescence (JAK1 reaction system); conditions: ATP 2 μM, JAK1 protein 0.2 ng/μL; read-out: JAK 1 activity
Method in brief: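 HTRF assay: JAK1 (0.2 ng/μL) with 2 μM ATP and substrate in 50 mM Hepes pH 7.0, 5 mM MgCl2, 1 mM DTT, 1 h. Phospho-substrate antibody/XL-615 detection with EDTA; 665/615 nm ratio, excitation 320 nm. IC50 from Hill-type fit against no-enzyme and no-compound controls.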

TYK2 = TYK2 (Homo sapiens, UniProt P29597); experiment: JAK kinase activity, homogeneous time-resolved fluorescence (TYK2 reaction system); conditions: ATP 2 μM, TYK2 protein 0.2 ng/μL; read-out: TYK 2 activity
Method in brief: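 Activity read as the 665 nm/615 nm ratio after adding EDTA-containing detection mix with anti-phospho-substrate antibody and XL-615. Beforehand, 0.2 ng/μL TYK2, 2 μM ATP, substrate and compound reacted 1 h in pH 7.0 Hepes buffer with MgCl2 and DTT. IC50 fitted with Hill-slope equation.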

JAK3 = target: T1, JAK3 (Homo sapiens, UniProt P52333); experiment: JAK kinase activity, homogeneous time-resolved fluorescence (JAK3 reaction system); conditions: ATP 2 μM, JAK3 protein 0.04 ng/μL; read-out: JAK 3 activity
T1 sequence (P52333 1-1124): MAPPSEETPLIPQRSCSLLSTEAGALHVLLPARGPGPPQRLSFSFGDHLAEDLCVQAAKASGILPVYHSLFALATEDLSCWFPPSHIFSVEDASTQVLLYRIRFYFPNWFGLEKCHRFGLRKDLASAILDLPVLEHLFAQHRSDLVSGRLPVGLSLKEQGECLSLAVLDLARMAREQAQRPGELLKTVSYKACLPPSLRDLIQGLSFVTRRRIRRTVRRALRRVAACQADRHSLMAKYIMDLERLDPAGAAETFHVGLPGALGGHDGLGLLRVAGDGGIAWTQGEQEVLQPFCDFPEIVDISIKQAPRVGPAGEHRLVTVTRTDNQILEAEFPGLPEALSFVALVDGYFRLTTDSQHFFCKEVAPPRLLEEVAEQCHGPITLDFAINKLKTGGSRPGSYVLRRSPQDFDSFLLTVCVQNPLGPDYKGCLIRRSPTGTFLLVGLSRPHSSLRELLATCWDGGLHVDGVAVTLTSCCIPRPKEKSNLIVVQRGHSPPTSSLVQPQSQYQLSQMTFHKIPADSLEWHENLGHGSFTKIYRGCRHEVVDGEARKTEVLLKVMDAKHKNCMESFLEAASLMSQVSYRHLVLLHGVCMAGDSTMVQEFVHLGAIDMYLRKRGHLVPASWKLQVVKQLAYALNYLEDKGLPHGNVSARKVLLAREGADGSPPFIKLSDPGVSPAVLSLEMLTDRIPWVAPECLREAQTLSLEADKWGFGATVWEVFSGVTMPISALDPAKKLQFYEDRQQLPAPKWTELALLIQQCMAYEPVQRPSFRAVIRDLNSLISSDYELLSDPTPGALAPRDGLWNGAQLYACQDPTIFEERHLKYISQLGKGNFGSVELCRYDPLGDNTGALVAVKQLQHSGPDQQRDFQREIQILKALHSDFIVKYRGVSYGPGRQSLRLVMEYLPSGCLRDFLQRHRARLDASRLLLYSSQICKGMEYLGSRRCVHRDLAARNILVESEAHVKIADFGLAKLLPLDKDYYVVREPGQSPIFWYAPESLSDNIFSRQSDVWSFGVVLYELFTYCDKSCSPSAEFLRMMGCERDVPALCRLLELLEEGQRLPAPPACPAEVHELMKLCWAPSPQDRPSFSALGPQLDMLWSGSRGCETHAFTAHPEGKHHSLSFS

Sequence of TYK2 (P29597 whole entry): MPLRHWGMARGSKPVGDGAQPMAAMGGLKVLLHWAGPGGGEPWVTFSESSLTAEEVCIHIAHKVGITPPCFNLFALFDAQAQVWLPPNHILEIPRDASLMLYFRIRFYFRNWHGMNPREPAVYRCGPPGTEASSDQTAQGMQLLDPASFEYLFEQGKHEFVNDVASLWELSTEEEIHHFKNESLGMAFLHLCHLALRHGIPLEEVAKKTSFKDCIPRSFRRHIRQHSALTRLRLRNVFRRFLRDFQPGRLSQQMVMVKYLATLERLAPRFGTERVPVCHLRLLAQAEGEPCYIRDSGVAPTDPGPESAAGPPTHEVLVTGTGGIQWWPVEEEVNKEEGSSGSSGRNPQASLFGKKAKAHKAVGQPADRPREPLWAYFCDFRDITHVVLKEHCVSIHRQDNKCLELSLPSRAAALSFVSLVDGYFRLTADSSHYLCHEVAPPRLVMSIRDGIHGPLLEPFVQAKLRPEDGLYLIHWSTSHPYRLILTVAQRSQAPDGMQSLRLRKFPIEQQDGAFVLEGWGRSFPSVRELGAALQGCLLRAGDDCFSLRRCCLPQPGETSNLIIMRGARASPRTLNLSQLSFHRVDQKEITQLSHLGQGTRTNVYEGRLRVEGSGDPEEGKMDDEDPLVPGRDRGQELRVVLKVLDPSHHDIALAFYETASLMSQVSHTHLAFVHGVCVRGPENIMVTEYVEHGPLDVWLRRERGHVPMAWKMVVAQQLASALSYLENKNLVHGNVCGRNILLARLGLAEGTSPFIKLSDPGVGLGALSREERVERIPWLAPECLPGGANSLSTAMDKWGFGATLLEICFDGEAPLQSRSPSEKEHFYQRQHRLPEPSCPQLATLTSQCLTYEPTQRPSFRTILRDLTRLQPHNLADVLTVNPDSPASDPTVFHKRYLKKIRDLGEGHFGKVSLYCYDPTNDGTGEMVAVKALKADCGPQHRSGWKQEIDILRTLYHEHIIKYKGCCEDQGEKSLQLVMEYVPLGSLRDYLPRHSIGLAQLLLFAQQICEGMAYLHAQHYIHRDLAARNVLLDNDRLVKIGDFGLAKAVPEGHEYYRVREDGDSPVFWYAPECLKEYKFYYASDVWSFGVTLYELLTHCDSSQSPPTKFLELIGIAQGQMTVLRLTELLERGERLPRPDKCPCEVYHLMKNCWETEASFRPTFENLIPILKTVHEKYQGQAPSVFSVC
Sequence of JAK1 (P23458 whole entry): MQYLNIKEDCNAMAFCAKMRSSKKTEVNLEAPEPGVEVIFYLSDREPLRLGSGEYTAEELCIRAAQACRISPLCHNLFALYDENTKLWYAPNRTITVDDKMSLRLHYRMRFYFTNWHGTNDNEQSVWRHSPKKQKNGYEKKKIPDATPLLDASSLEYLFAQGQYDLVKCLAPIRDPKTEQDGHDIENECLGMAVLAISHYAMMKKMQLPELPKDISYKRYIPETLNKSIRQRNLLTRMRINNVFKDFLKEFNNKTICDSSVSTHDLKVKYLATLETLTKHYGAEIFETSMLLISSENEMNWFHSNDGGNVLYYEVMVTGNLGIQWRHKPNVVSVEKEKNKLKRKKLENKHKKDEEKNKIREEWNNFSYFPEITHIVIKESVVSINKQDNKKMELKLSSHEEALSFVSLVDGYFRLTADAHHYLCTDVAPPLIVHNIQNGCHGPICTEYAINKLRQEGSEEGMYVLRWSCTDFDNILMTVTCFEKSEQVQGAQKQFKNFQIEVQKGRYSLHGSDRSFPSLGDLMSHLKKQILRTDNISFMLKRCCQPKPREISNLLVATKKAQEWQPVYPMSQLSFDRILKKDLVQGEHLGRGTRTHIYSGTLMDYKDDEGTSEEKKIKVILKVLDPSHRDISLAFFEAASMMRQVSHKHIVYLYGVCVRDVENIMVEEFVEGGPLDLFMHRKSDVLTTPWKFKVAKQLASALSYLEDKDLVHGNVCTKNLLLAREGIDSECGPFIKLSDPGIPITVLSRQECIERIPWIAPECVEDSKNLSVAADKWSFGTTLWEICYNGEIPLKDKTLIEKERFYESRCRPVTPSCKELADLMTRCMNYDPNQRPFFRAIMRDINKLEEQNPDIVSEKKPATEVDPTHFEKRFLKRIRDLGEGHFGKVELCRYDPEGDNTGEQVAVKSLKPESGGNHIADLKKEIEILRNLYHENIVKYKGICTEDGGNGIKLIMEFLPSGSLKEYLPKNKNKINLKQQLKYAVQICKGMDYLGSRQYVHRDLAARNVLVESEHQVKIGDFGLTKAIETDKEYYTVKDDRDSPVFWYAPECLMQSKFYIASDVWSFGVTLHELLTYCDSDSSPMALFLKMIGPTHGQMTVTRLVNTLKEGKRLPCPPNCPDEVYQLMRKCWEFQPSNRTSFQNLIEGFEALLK
Sequence of JAK2 (O60674 whole entry): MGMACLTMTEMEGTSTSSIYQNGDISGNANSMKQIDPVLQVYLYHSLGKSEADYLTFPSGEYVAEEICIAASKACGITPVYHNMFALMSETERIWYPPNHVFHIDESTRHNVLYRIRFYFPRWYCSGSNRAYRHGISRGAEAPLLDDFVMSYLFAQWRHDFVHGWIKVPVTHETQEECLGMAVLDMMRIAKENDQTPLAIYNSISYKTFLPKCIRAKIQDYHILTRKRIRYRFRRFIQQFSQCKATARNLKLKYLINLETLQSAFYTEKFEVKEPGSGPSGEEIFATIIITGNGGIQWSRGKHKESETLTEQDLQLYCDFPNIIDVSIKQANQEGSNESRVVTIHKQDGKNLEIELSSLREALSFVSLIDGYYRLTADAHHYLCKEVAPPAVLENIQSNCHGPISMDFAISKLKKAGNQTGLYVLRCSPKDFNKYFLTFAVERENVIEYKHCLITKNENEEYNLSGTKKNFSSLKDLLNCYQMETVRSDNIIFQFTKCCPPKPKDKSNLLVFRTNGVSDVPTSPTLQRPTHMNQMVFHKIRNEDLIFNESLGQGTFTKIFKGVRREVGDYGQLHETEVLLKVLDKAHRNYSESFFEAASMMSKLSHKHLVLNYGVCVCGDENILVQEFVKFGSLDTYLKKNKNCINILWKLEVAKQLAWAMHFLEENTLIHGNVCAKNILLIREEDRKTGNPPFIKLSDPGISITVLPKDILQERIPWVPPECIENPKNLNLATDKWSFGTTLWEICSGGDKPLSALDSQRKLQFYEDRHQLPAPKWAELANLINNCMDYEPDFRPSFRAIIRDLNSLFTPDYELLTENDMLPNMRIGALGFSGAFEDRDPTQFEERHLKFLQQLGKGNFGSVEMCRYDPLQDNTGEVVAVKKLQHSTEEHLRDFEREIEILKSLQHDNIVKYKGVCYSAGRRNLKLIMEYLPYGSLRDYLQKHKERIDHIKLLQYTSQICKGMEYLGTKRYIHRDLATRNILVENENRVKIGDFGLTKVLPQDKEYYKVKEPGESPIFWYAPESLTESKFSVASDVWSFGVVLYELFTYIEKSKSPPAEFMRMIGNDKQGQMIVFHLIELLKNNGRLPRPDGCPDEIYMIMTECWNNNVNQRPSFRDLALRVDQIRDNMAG

| Structure (SMILES) | pIC50 (JAK2) | pIC50 (JAK1) | pIC50 (TYK2) | pIC50 (JAK3) |
| --- | --- | --- | --- | --- |
| Nc1cc2ccc1-c1ccnc(n1)Nc1ccc(OCC3CCc4ccccc43)c(c1)COCCCCNC2=O (stereo not shown) [Example 134, 1^2-amino-4^4-((2,3-dihydro-1H-inden-1-yl)methoxy)-6-oxa-3,11-diaza-2(4,2)-pyrimidina-1(1,4),4(1,3)-dibenzenacyclododecaphan-12-one] | 5.00 to 6.00 | 5.00 to 6.00 | 5.00 to 6.00 | 7.00 to 7.96 |
| Nc1cc2ccc1-c1ccnc(n1)Nc1ccc(OC3CCCOC3)c(c1)COCCCCNC2=O (stereo not shown) [Example 114, 1^2-amino-4^4-((tetrahydro-2H-pyran-3-yl)oxy)-6-oxa-3,11-diaza-2(4,2)-pyrimidina-1(1,4),4(1,3)-di-benzenacyclododecaphan-12-one] | 7.00 to 7.96 | 6.00 to 7.00 | 5.00 to 6.00 | > 8.00 |
| CC(C)COc1ccc2cc1COc1ccc(cc1)NC(=O)c1ccc(c([N+](=O)[O-])c1)-c1ccnc(n1)N2 [Example 201, 4^4-isobutoxy-1^2-nitro-6-oxa-3,8-dia-za-2(4,2)-pyrimidina-1,7(1,4),4(1,3)-tribenzenacyclononaphane-9-one] | < 5.00 | < 5.00 | < 5.00 | 5.00 to 6.00 |
| O=C1NCCCCOCc2cc(ccc2N2CCOCC2)Nc2ncc(Cl)c(n2)-c2ccc1cc2Cl [Example 17, 1^2,2^5-dichloro-4^4-morpholin-6-oxa-3,11-diaza-2(4,2)-pyrimidina-1(1,4),4(1,3)-dibenzenacyclododecaphan-12-one] | 6.00 to 7.00 | 5.00 to 6.00 | 5.00 to 6.00 | 6.00 to 7.00 |
| Nc1cc2ccc1-c1ccnc(n1)Nc1ccc(Oc3ccccc3F)c(c1)COCCCCNC2=O [Example 119, 1^1-amino-4^4-(2-fluorophenoxy)-6-oxa-3,11-diaza-2(4,2)-pyrimidina-1(1,4),4(1,3)-dibenzenacyclo-dodecaphan-12-one] | 5.00 to 6.00 | 5.00 to 6.00 | < 5.00 | 7.00 to 7.96 |
| O=C1Nc2ccc(cc2)OCc2cc(ccc2OC2CC2)Nc2nccc(n2)-c2ccc1cc2O [Example 217, 4^4-cyclopropoxy-1^2-hydroxy-6-oxa-3,8-diaza-2(4,2)-pyrimidina-1,7(1,4),4(1,3)-tribenzenacyclononaphane-9-one] | 6.00 to 7.00 | 6.00 to 7.00 | 5.00 to 6.00 | 7.00 to 7.96 |
| CC1CCNC(=O)c2ccc(c(N)c2)-c2ccnc(n2)Nc2ccc(Oc3cccnc3)c(c2)COC1 (stereo not shown) [Example 130, 1^2-amino-8-methyl-4^4-(pyridin-3-oxy)-6-oxa-3,11-diaza-2(4,2)-pyri-midina-1(1,4),4(1,3)-dibenzenacyclo-dodecaphan-12-one] | 6.00 to 7.00 | 5.00 to 6.00 | < 5.00 | 7.00 to 7.96 |
| Nc1cc2ccc1-c1ccnc(n1)Nc1ccc(OCc3ccccc3F)c(c1)COCCCCNC2=O [Example 153, 1^2-amino-4^4-((2-fluorobenzyl)oxy)-6-oxa-3,11-diaza-2(4,2)-pyrimidi-na-1(1,4),4(1,3)-dibenzenacyclo-dodecaphan-12-one] | 6.00 to 7.00 | 5.00 to 6.00 | < 5.00 | > 8.00 |
| CC1CCNC(=O)c2ccc(c(N)c2)-c2ccnc(n2)Nc2ccc(OCC(F)(F)F)c(c2)COC1 (stereo not shown) [Example 132] | 6.00 to 7.00 | 5.00 to 6.00 | < 5.00 | > 8.00 |
| Nc1cc2ccc1-c1ccnc(n1)Nc1ccc(OCC3CCC(F)(F)C3)c(c1)COCCCCNC2=O (stereo not shown) [Example 121, 1^2-amino-4^4-((3,3-difluorocyclo-pentyl)methoxy)-6-oxa-3,11-diaza-2(4,2)-pyrimidina-1(1,4),4(1,3)-di-benzenacyclododecaphan-12-one] | 6.00 to 7.00 | 5.00 to 6.00 | 5.00 to 6.00 | > 8.00 |
| CC1(C)CCNC(=O)c2ccc(c(N)c2)-c2ccnc(n2)Nc2ccc(OC3CC3)c(c2)COC1 [Example 176, 1^2-amino-4^4-cyclopropoxy-8,8-di-methyl-6-oxa-3,11-diaza-2(4,2)-py-rimidina-1(1,4),4(1,3)-dibenzena-cyclododecaphan-12-one] | < 5.00 | < 5.00 | < 5.00 | 5.00 to 6.00 |
| Cc1cnc2nc1-c1ccc(cc1)C(=O)NCCCCOCc1cc(ccc1N1CCOCC1)N2 [Example 5, 2^5-methyl-4^4-morpholin-6-oxa-3,11-diaza-2(4,2)-pyrimidina-1(1,4),4(1,3)-dibenzenacyclododecaphan-12-one] | 7.00 to 7.96 | 7.00 to 7.96 | 7.00 to 7.96 | 7.00 to 7.96 |
| Nc1cc2ccc1-c1ccnc(n1)Nc1ccc(OCC3CCOC3)c(c1)COc1ccc(cc1)NC2=O (stereo not shown) [Example 211, 1^2-amino-4^4-((tetrahydrofuran-3-yl)methoxy)-6-oxa-3,8-diaza-2(4,2)-py-rimidina-1,7(1,4),4(1,3)-tribenzena-cyclononaphane-9-one] | 6.00 to 7.00 | 6.00 to 7.00 | 5.00 to 6.00 | 7.00 to 7.96 |
| O=C1NCCCCOCc2cc(ccc2OCC2CCC2)Nc2nccc(n2)-c2ccc1cc2[N+](=O)[O-] [Example 99, 4^4-(cyclobutylmethoxy)-1^2-nitro-6-oxa-3,11-diaza-2(4,2)-pyrimidina-1(1,4),4(1,3)-dibenzenacyclodode-caphan-12-one] | 5.00 to 6.00 | < 5.00 | < 5.00 | 6.00 to 7.00 |
| COc1cc(F)cc(F)c1COc1ccc2cc1COCC[C@@H](C)CNC(=O)c1ccc(c(N)c1)-c1ccnc(n1)N2 [Example 188, (R)-1^2-amino-4^4-((2,4-difluoro-6-methoxybenzyl)oxy)-9-methyl-6-o-xa-3,11-diaza-2(4,2)-pyrimidina-1(1,4),4(1,3)-dibenzenacyclo-dodecaphan-12-one] | 6.00 to 7.00 | 5.00 to 6.00 | 5.00 to 6.00 | 7.00 to 7.96 |
| Cc1cc2ccc1-c1nc(ncc1C)Nc1ccc(F)c(c1)COCCCCNC2=O [Example 45, 1^2,2^5-dimethyl-4^4-fluoro-6-oxa-3,11-diaza-2(4,2)-pyrimidina-1(1,4),4(1,3)-dibenzenacyclododecaphan-12-one] | 5.00 to 6.00 | 5.00 to 6.00 | < 5.00 | 5.00 to 6.00 |
| O=C1NCCCCOCc2cc(ccc2N2CCOCC2)Nc2nccc(n2)-c2ccc1cc2I [Example 41, 1^2-iodine-4^4-morpholin-6-oxa-3,11-diaza-2(4,2)-pyrimidina-1(1,4),4(1,3)-dibenzenacyclododephan-12-one] | 6.00 to 7.00 | 5.00 to 6.00 | 5.00 to 6.00 | 6.00 to 7.00 |
| COc1cccc(F)c1COc1ccc2cc1COCC[C@@H](C)CNC(=O)c1ccc(c(N)c1)-c1ccnc(n1)N2 [Example 186, (R)-1^2-amino-4^4-((2-fluoro-6-meth-oxybenzyl)oxy)-9-methyl-6-oxa-3,11-diaza-2(4,2)-pyrimidina-1(1,4),4(1,3)-dibenzenacyclododecaphan-12-one] | 6.00 to 7.00 | 5.00 to 6.00 | 5.00 to 6.00 | > 8.00 |
| CC1CCNC(=O)c2ccc(c([N+](=O)[O-])c2)-c2ccnc(n2)Nc2ccc(OC3CCCOC3)c(c2)COC1 (stereo not shown) [Example 137, 8-methyl-1^2-nitro-4^4-((tetrahydro-2H-pyran-3-yl)oxy)-6-oxa-3,11-di-aza-2(4,2)-pyrimidina-1(1,4),4(1,3)-dibenzenacyclododecaphan-12-one] | 5.00 to 6.00 | 5.00 to 6.00 | < 5.00 | 6.00 to 7.00 |
